Experiments:
[1] = tested on: 8305C; assay: cells; assay type: functional, cell-based; details: Homo sapiens
Description: SANGER: Inhibition of human 8305C cell growth in a cell viability assay.

[2] = tested on: FaDu; assay: cells; assay type: functional, cell-based; details: Homo sapiens;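 also: cell viability readout of growth inhibition in FaDu cells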
Description: SANGER: Inhibition of human FADU cell growth in a cell viability assay.

[3] = tested on: HT1197; assay: cells; assay type: functional, cell-based, HT-1197; details: Homo sapiens
Description: SANGER: Inhibition of human HT-1197 cell growth in a cell viability assay.

[4] = tested on: COLO-680N; assay: cells; assay type: functional, cell-based; details: Homo sapiens;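 also: cell viability assay used to measure inhibition of COLO-680N cell growth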
Description: SANGER: Inhibition of human COLO-680N cell growth in a cell viability assay.

[5] = tested on: HSC-4; assay: cells; assay type: functional, cell-based; details: Homo sapiens;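 also: growth inhibition of human HSC-4 cells, read out with a cell viability assay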
Description: SANGER: Inhibition of human HSC-4 cell growth in a cell viability assay.

[6] = tested on: SW1783; assay: cells; assay type: functional, cell-based; details: Homo sapiens
Description: SANGER: Inhibition of human SW1783 cell growth in a cell viability assay.

[7] = tested on: Capan-2; assay: cells; assay type: functional, cell-based; details: Homo sapiens;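 also: Capan-2 cell growth inhibition, read out with a viability assay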
Description: SANGER: Inhibition of human Capan-2 cell growth in a cell viability assay.

[8] = tested on: 786-0; assay: cells; assay type: functional, cell-based; details: Homo sapiens
Description: SANGER: Inhibition of human 786-0 cell growth in a cell viability assay.

[9] = tested on: RPMI-7951; assay: cells; assay type: functional, cell-based; details: Homo sapiens
Description: SANGER: Inhibition of human RPMI-7951 cell growth in a cell viability assay.

[10] = tested on: MC-CAR; assay: cells; assay type: functional, cell-based; details: Homo sapiens;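 also: growth inhibition of the human MC-CAR cell line, read out by a cell viability assay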
Description: SANGER: Inhibition of human MC-CAR cell growth in a cell viability assay.

[11] = tested on: SAS; assay: cells; assay type: functional, cell-based; details: Homo sapiens;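 also: growth inhibition of SAS cells, read out with a cell viability assay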
Description: SANGER: Inhibition of human SAS cell growth in a cell viability assay.

[12] = tested on: NCI-H358; assay: cells; assay type: functional, cell-based; details: Homo sapiens;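 also: growth inhibition of NCI-H358 human cells, read out with a cell viability assay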
Description: SANGER: Inhibition of human NCI-H358 cell growth in a cell viability assay.

[13] = tested on: CAL-120; assay: cells; assay type: functional, cell-based; details: Homo sapiens;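 also: cell growth inhibition, read out as cell viability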
Description: SANGER: Inhibition of human CAL-120 cell growth in a cell viability assay.

[14] = tested on: SCC-25; assay: cells; assay type: functional, cell-based; details: Homo sapiens;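 also: growth inhibition of SCC-25 cells, measured with a cell viability assay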
Description: SANGER: Inhibition of human SCC-25 cell growth in a cell viability assay.

[15] = tested on: D-392MG; assay: cells; assay type: functional, cell-based; details: Homo sapiens
[16] = tested on: BL-70; assay: SANGER: Inhibition of human BL-70 cell growth in a cell viability assay.; assay type: functional, cell-based
[17] = tested on: ASPC1; assay: cells; assay type: functional, cell-based; details: Homo sapiens;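 also: growth inhibition of AsPC-1 cells, read out with a cell viability assay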
Description: SANGER: Inhibition of human AsPC-1 cell growth in a cell viability assay.

[18] = tested on: T84; assay: cells; assay type: functional, cell-based; details: Homo sapiens;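 also: growth inhibition measured with a cell viability readout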
Description: SANGER: Inhibition of human T84 cell growth in a cell viability assay.

[19] = tested on: HCC1806; assay: cells; assay type: functional, cell-based; details: Homo sapiens;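 also: growth inhibition of the cancer cell line, determined with a cell viability assay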
Description: SANGER: Inhibition of human HCC1806 cell growth in a cell viability assay.

[20] = tested on: NCI-H1793; assay: cells; assay type: functional, cell-based; details: Homo sapiens;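 also: cell growth inhibition, read out by a cell viability assay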
Description: SANGER: Inhibition of human NCI-H1793 cell growth in a cell viability assay.

[21] = tested on: NCI-H520; assay: cells; assay type: functional, cell-based; details: Homo sapiens;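 also: growth inhibition of NCI-H520 cells, measured by a cell viability assay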
Description: SANGER: Inhibition of human NCI-H520 cell growth in a cell viability assay.

[22] = tested on: RVH-421; assay: cells; assay type: functional, cell-based; details: Homo sapiens
Description: SANGER: Inhibition of human RVH-421 cell growth in a cell viability assay.

[23] = tested on: DG-75; assay: cells; assay type: functional, cell-based; details: Homo sapiens;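 also: growth inhibition of DG-75 cells, read out with a cell viability assay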
Description: SANGER: Inhibition of human DG-75 cell growth in a cell viability assay.

[24] = tested on: VM-CUB-1; assay: cells; assay type: functional, cell-based; details: Homo sapiens;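 also: cell viability assay measuring growth inhibition of the human VM-CUB-1 cell line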
Description: SANGER: Inhibition of human VM-CUB-1 cell growth in a cell viability assay.

[25] = tested on: HLE; assay: cells; assay type: functional, cell-based; details: Homo sapiens;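 also: growth inhibition of human HLE cells, read out by a cell viability assay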
Description: SANGER: Inhibition of human HLE cell growth in a cell viability assay.

[26] = tested on: SCLC-21H; assay: cells; assay type: functional, cell-based; details: Homo sapiens;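 also: growth inhibition of cultured human SCLC-21H cells, read out with a cell viability assay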
Description: SANGER: Inhibition of human SCLC-21H cell growth in a cell viability assay.

[27] = tested on: ESS-1; assay: cells; assay type: functional, cell-based; details: Homo sapiens;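 also: growth inhibition of human ESS-1 cells, read out by a cell viability assay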
Description: SANGER: Inhibition of human ESS-1 cell growth in a cell viability assay.

[28] = tested on: NCI-H2122; assay: cells; assay type: functional, cell-based; details: Homo sapiens;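 also: growth inhibition of the cells, read out with a cell viability assay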
Description: SANGER: Inhibition of human NCI-H2122 cell growth in a cell viability assay.

[29] = tested on: RCM-1; assay: cells; assay type: functional, cell-based; details: Homo sapiens;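 also: growth inhibition of the RCM-1 line, determined with a cell viability readout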
Description: SANGER: Inhibition of human RCM-1 cell growth in a cell viability assay.

[30] = tested on: OPM-2; assay: cells; assay type: functional, cell-based; details: Homo sapiens;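 also: growth of OPM-2 cells measured with a viability assay, IC50 for suppression of proliferation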
Description: SANGER: Inhibition of human OPM-2 cell growth in a cell viability assay.

[31] = tested on: MONO-MAC-6; assay: cells; assay type: functional, cell-based; details: Homo sapiens;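 also: cell viability assay measuring growth inhibition of human MONO-MAC-6 cells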
Description: SANGER: Inhibition of human MONO-MAC-6 cell growth in a cell viability assay.

[32] = tested on: HCC70; assay: cells; assay type: functional, cell-based; details: Homo sapiens;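 also: cell viability assay measuring how strongly the compound suppresses proliferation of HCC70 cells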
Description: SANGER: Inhibition of human HCC70 cell growth in a cell viability assay.

[33] = tested on: SW1573; assay: cells; assay type: functional, cell-based; details: Homo sapiens;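 also: growth inhibition of SW1573 cells, read out with a cell viability assay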
Description: SANGER: Inhibition of human SW1573 cell growth in a cell viability assay.

[34] = tested on: PF-382; assay: cells; assay type: functional, cell-based; details: Homo sapiens
Description: SANGER: Inhibition of human PF-382 cell growth in a cell viability assay.

[35] = tested on: MFE-280; assay: cells; assay type: functional, cell-based; details: Homo sapiens;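 also: growth inhibition of MFE-280 cells, determined with a cell viability readout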
Description: SANGER: Inhibition of human MFE-280 cell growth in a cell viability assay.

[36] = tested on: CAL-72; assay: cells; assay type: functional, cell-based; details: Homo sapiens;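 also: cell viability assay measuring inhibition of proliferation in the CAL-72 cell line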
Description: SANGER: Inhibition of human CAL-72 cell growth in a cell viability assay.

[37] = tested on: TGW; assay: cells; assay type: functional, cell-based; details: Homo sapiens;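 also: growth inhibition of human TGW cells, read out with a cell viability assay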
Description: SANGER: Inhibition of human TGW cell growth in a cell viability assay.

[38] = tested on: CAMA-1; assay: cells; assay type: functional, cell-based; details: Homo sapiens;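 also: growth inhibition of CAMA-1 cells, read out with a cell viability assay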
Description: SANGER: Inhibition of human CAMA-1 cell growth in a cell viability assay.

[39] = tested on: HCC1954; assay: cells; assay type: functional, cell-based; details: Homo sapiens;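 also: growth inhibition of human HCC1954 cells, read out with a cell viability assay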
Description: SANGER: Inhibition of human HCC1954 cell growth in a cell viability assay.

[40] = tested on: NCI-H187; assay: cells; assay type: functional, cell-based; details: Homo sapiens;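 also: growth inhibition of NCI-H187 cells, read out as cell viability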
Description: SANGER: Inhibition of human NCI-H187 cell growth in a cell viability assay.

[41] = tested on: SW948; assay: cells; assay type: functional, cell-based; details: Homo sapiens;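 also: growth inhibition of SW948 cells, read out with a cell viability assay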
Description: SANGER: Inhibition of human SW948 cell growth in a cell viability assay.

[42] = tested on: EGI-1; assay: cells; assay type: functional, cell-based; details: Homo sapiens;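 also: cell viability readout used to gauge growth inhibition of EGI-1 cells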
Description: SANGER: Inhibition of human EGI-1 cell growth in a cell viability assay.

[43] = tested on: BOKU; assay: cells; assay type: functional, cell-based; details: Homo sapiens;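 also: growth inhibition of the human BOKU cell line, read out by a cell viability assay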
Description: SANGER: Inhibition of human BOKU cell growth in a cell viability assay.

[44] = tested on: LU-99A; assay: cells; assay type: functional, cell-based; details: Homo sapiens;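 also: growth inhibition of LU-99A cells, read out with a cell viability assay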
Description: SANGER: Inhibition of human LU-99A cell growth in a cell viability assay.

[45] = tested on: COLO-678; assay: cells; assay type: functional, cell-based; details: Homo sapiens
Description: SANGER: Inhibition of human COLO-678 cell growth in a cell viability assay.

[46] = tested on: SU-DHL-1; assay: SANGER: Inhibition of human SU-DHL-1 cell growth in a cell viability assay.; assay type: functional, cell-based
[47] = tested on: TE-15; assay: cells; assay type: functional, cell-based; details: Homo sapiens;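 also: cell viability readout of growth inhibition in TE-15 cells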
Description: SANGER: Inhibition of human TE-15 cell growth in a cell viability assay.

[48] = tested on: NCI-H2405; assay: cells; assay type: functional, cell-based; details: Homo sapiens;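 also: growth inhibition of the human cell line, read out with a cell viability assay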
Description: SANGER: Inhibition of human NCI-H2405 cell growth in a cell viability assay.

[49] = tested on: MDA-MB-453; assay: cells; assay type: functional, cell-based; details: Homo sapiens
Description: SANGER: Inhibition of human MDA-MB-453 cell growth in a cell viability assay.

[50] = tested on: OAW-28; assay: cells; assay type: functional, cell-based; details: Homo sapiens;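 also: growth inhibition of OAW-28 cells, read out with a cell viability assay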
Description: SANGER: Inhibition of human OAW-28 cell growth in a cell viability assay.

[51] = tested on: HuCCT-1; assay: cells; assay type: functional, cell-based, HuCCT1; details: Homo sapiens;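 also: growth inhibition of HuCCT-1 cells, read out by a cell viability assay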
Description: SANGER: Inhibition of human HuCCT1 cell growth in a cell viability assay.

[52] = tested on: YT; assay: cells; assay type: functional, cell-based; details: Homo sapiens
Description: SANGER: Inhibition of human YT cell growth in a cell viability assay.

[53] = tested on: KYSE-520 cell line; assay: cells; assay type: functional, cell-based; details: Homo sapiens;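 also: growth inhibition of human KYSE-520 cells, read out with a viability assay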
Description: SANGER: Inhibition of human KYSE-520 cell growth in a cell viability assay.

[54] = tested on: MDA-MB-415; assay: cells; assay type: functional, cell-based; details: Homo sapiens
[55] = tested on: P12-Ichikawa; assay: cells; assay type: functional, cell-based; details: Homo sapiens
[56] = tested on: RPMI-6666; assay: cells; assay type: functional, cell-based; details: Homo sapiens
Description: SANGER: Inhibition of human RPMI-6666 cell growth in a cell viability assay.

[57] = tested on: HGC-27; assay: cells; assay type: functional, cell-based; details: Homo sapiens;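 also: growth inhibition of human HGC-27 cells, read out in a cell viability assay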
Description: SANGER: Inhibition of human HGC-27 cell growth in a cell viability assay.

[58] = tested on: NCI-H1693; assay: cells; assay type: functional, cell-based; details: Homo sapiens;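 also: growth inhibition of the human cell line, read out with a cell viability assay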
Description: SANGER: Inhibition of human NCI-H1693 cell growth in a cell viability assay.

[59] = tested on: NCI-H596; assay: cells; assay type: functional, cell-based; details: Homo sapiens;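 also: growth inhibition of NCI-H596 cells, read out with a cell viability assay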
Description: SANGER: Inhibition of human NCI-H596 cell growth in a cell viability assay.

[60] = tested on: REH; assay: cells; assay type: functional, cell-based; details: Homo sapiens;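 also: growth inhibition of REH cells determined with a cell viability read-out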
Description: SANGER: Inhibition of human REH cell growth in a cell viability assay.

[61] = tested on: FTC-133; assay: cells; assay type: functional, cell-based; details: Homo sapiens
[62] = tested on: HMV-2 cell line; assay: cells; assay type: functional, cell-based; details: Homo sapiens;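 also: growth inhibition of HMV-II cells, read out with a cell viability assay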
Description: SANGER: Inhibition of human HMV-II cell growth in a cell viability assay.

[63] = tested on: LK-2; assay: cells; assay type: functional, cell-based; details: Homo sapiens;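 also: growth inhibition of LK-2 cells, read out with a viability assay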
Description: SANGER: Inhibition of human LK-2 cell growth in a cell viability assay.

[64] = tested on: DBTRG-05MG; assay: cells; assay type: functional, cell-based; details: Homo sapiens;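 also: cell viability assay measuring growth inhibition of human DBTRG-05MG cells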
Description: SANGER: Inhibition of human DBTRG-05MG cell growth in a cell viability assay.

Compound `C/C=C(/C)C(=O)O[C@H]1C(C)=C2[C@H]([C@@H]1OC(=O)CCCCCCC)[C@@](C)(OC(C)=O)C[C@H](OC(=O)CCC)[C@@]1(O)[C@H]2OC(=O)[C@@]1(C)O` [THAPSIGARGIN] has an IC50 [1] of 0.0027 µM, an IC50 [2] of 0.169 µM and an IC50 [3] of over 0.512 µM. For the same compound, the IC50 [4] was 0.018 µM, the IC50 [5] was over 0.512 µM and the IC50 [6] was 0.00924 µM. It also gave an IC50 [7] of under 0.002 µM, an IC50 [8] of under 0.002 µM and an IC50 [9] of 0.00398 µM. The IC50 [10] was 0.0244 µM, the IC50 [11] was 0.106 µM and the IC50 [12] was under 0.002 µM. It also gave an IC50 [13] of 0.0441 µM, an IC50 [14] of 0.00971 µM and an IC50 [15] of over 0.512 µM. The IC50 [16] was 0.00882 µM, the IC50 [17] was over 0.512 µM and the IC50 [18] was 0.0134 µM. It also gave an IC50 [19] of 0.0024 µM, an IC50 [20] of over 0.512 µM and an IC50 [21] of under 0.002 µM. It also gave an IC50 [22] of 0.00367 µM, an IC50 [23] of over 0.512 µM and an IC50 [24] of 0.022 µM. It also gave an IC50 [25] of 0.00275 µM, an IC50 [26] of 0.00169 µM and an IC50 [27] of 0.00758 µM. For the same compound, the IC50 [28] was 0.00449 µM, the IC50 [29] was 0.122 µM and the IC50 [30] was under 0.002 µM. The IC50 [31] was 0.0038 µM, the IC50 [32] was 0.0226 µM and the IC50 [33] was 0.0311 µM. For the same compound, the IC50 [34] was 0.0259 µM, the IC50 [35] was 0.0366 µM and the IC50 [36] was 0.00227 µM. The IC50 [37] was 0.00473 µM, the IC50 [38] was 0.0105 µM and the IC50 [39] was 0.0249 µM. The IC50 [40] was 0.0532 µM, the IC50 [41] was over 0.512 µM and the IC50 [42] was 0.0217 µM. For the same compound, the IC50 [43] was over 0.512 µM, the IC50 [44] was 0.00136 µM and the IC50 [45] was over 0.512 µM. It also gave an IC50 [46] of over 0.512 µM, an IC50 [47] of 0.00491 µM and an IC50 [48] of 0.00114 µM. For the same compound, the IC50 [49] was over 0.512 µM, the IC50 [50] was 0.0503 µM and the IC50 [51] was 0.00433 µM. The IC50 [52] was 0.0131 µM, the IC50 [53] was 0.0207 µM and the IC50 [54] was over 0.512 µM. It also gave an IC50 [55] of 0.0245 µM, an IC50 [56] of 0.0426 µM and an IC50 [57] of under 0.002 µM. The IC50 [58] was over 0.512 µM, the IC50 [59] was 0.0389 µM and the IC50 [60] was 0.00639 µM. It also gave an IC50 [61] of over 0.512 µM, an IC50 [62] of 0.00687 µM and an IC50 [63] of 0.00146 µM. It also gave an IC50 [64] of 0.0117 µM.
